Test system: dogs with advanced heart failure
Test: Dose escalation / bolus plus infusion study, hemodynamic and ventriculographic measures
Type: in vivo, dog
Conditions: for Cardiac output (CO) / Heart rate (HR) / LV end-diastolic pressure (LVEDP) / LV end-diastolic volume (EDV) / LV end-systolic volume (ESV) / Mean aortic pressure (mAoP) / Stroke volume (SV) / Systemic vascular resistance (SVR): 1 h
Procedure: Studies were performed in purpose-bred, healthy and conditioned mongrel dogs weighing between 20 and 30 kg. The study was approved by Henry Ford Health System Institutional Animal Care and Use Committee and conformed to the National Institute of Health “Guide and Care for Use of Laboratory Animals” and the “Position of the American Heart Association on Research Animal Use” (Position of the American Heart Association on Research Animal Use. Circulation 1985; 71; 49A-50A).
Chronic LV dysfunction and failure was produced by multiple sequential intracoronary embolizations with polystyrene Latex; coronary microembolizations were performed during cardiac catheterization under general anesthesia and sterile conditions (Sabbah H N, et al. Am J Physiol (1991) 260:H1379-84; Sabbah H N, et al. Circulation (1994) 89:2852-9; Sabbah H N, et al. Am J Cardiol 99:41 A-46A, (2007)). Anesthesia was induced using a combination of intravenous injections of oxymorphone hydrochloride (0.22 mg/kg) and diazepam (0.2-0.6 mg/kg). Plane of anesthesia was maintained throughout the study using 1% to 2% isoflurane. Left and right heart catheterizations were performed via a femoral arteriotomy and venotomy. Coronary microembolizations were discontinued when LV ejection fraction, determined angiographically, was about 25%. A period of 2 weeks was allowed after the last microembolization to ensure that infarctions produced by the last microembolizations have completely healed and heart failure was established before the study is undertaken.
Eight heart failure dogs described in Example 1 were used. Seven of 8 dogs underwent two studies, one with active drug GP-531 tartrate and one with vehicle (placebo) and 1 of 8 dogs underwent only one active drug GP-531 study. The order of active drug and placebo was randomized and performed about one week apart. In 6 of 8 dogs, after baseline hemodynamic, and ventriculographic measurements, vehicle was administered as a continuous intravenous infusion for one hour. At the end of one hour, the active drug GP-531 tartrate was administered in 3 escalating dose of continuous intravenous infusion with each dose maintained for one hour. At the end of the last drug dose, infusion was stopped and a washout period of one hour was instituted. The same infusion rates and times between doses were used when vehicle studies were performed. At the end of each hour, hemodynamic and angiographic measurements were made. Venous blood samples were obtained at baseline and at one hour after each dose. Blood samples (at least 10 mL) were centrifuged at 3000 rpm for 10 minutes and plasma withdrawn and placed in cryostorage tubes and stored upright at −20° C. for future use. In 2 of 8 dogs, active drug was administered as bolus followed by a constant infusion for 3 hours as noted below.
Active drug was used in dog groups as follows:
1. In 3 of 8 dogs, escalating doses of 30, 100 and 300 μg/kg/min GP-531 tartrate were used (Group I)
2. In another 3 of 8 dogs, escalating doses of 3, 10 and 30 μg/kg/min GP-531 tartrate were used (Group II).
3. In 1 of 8 dogs, active drug was administered as 700 μg/kg GP-531 tartrate bolus followed by a constant infusion of 10 μg/kg/min GP-531 tartrate for 3 hours.
4. In another 1 of 8 dogs, two active drug studies were performed. In one study, active drug was administered as 70 μg/kg bolus followed by a constant infusion of 1.0 μg/kg/min for 4 hours and in the second study, active drug was administered as 210 μg/kg bolus followed by a constant infusion of 3.0 μg/kg/min for 4 hours.
Study Primary End-Points were: (1) change in LV ejection fraction determined from ventriculography and (2) change in LV end-systolic and end-diastolic volume determined from ventriculography.
All hemodynamic measurements were made during left and right heart catheterizations in anesthetized dogs at each specified study time point. […]

[1] = Group I HF dogs n=3, iv 30 μg/kg/min
[2] = Group I HF dogs n=3, iv 100 μg/kg/min
[3] = Group I HF dogs n=3, iv 300 μg/kg/min
[4] = Group II HF dogs n=3, iv 3 μg/kg/min
[5] = Group II HF dogs n=3, iv 10 μg/kg/min
[6] = Group II HF dogs n=3, iv 30 μg/kg/min

SMILES: NC(=O)c1ncn(C2OC(CNCc3ccccc3)C(O)C2O)c1N [GP-531, 5-amino-1-β-D-(5-benzylamino-5-deoxy-1-β-D-ribofuranosyl)imidazole-4 carboxamide]
- Effect on hemodynamic or ventriculographic measures of LV function (1 HF dog, 70 μg/kg bolus then 1.0 μg/kg/min for 4 h): no effects
- Cardiac output (CO) [1]: 1.90 ± 0.19 L/min
- Heart rate (HR) [1]: 88 ± 9 beats/min
- LV end-diastolic pressure (LVEDP) [1]: 11 ± 1 mmHg
- LV end-diastolic volume (EDV) [1]: 69 ± 6 mL
- LV end-systolic volume (ESV) [1]: 47 ± 4 mL
- Mean aortic pressure (mAoP) [1]: 70 ± 2 mmHg
- Stroke volume (SV) [1]: 22 ± 2 mL
- Systemic vascular resistance (SVR) [1]: 2995 ± 213 dynes-sec-cm^−5
- Cardiac output (CO) [2]: 2.06 ± 0.28 L/min
- Heart rate (HR) [2]: 90 ± 9 beats/min
- LV end-diastolic pressure (LVEDP) [2]: 10 ± 1 mmHg
- LV end-diastolic volume (EDV) [2]: 68 ± 4 mL
- LV end-systolic volume (ESV) [2]: 45 ± 4 mL
- Mean aortic pressure (mAoP) [2]: 69 ± 2 mmHg
- Stroke volume (SV) [2]: 23 ± 1 mL
- Systemic vascular resistance (SVR) [2]: 2792 ± 360 dynes-sec-cm^−5
- Cardiac output (CO) [3]: 2.06 ± 0.22 L/min
- Heart rate (HR) [3]: 88 ± 6 beats/min
- LV end-diastolic pressure (LVEDP) [3]: 11 ± 1 mmHg
- LV end-diastolic volume (EDV) [3]: 68 ± 4 mL
- LV end-systolic volume (ESV) [3]: 44 ± 4 mL
- Mean aortic pressure (mAoP) [3]: 73 ± 3 mmHg
- Stroke volume (SV) [3]: 23 ± 1 mL
- Systemic vascular resistance (SVR) [3]: 2886 ± 67 dynes-sec-cm^−5
- Cardiac output (CO) [4]: 1.47 ± 0.09 L/min
- Heart rate (HR) [4]: 80 ± 2 beats/min
- LV end-diastolic pressure (LVEDP) [4]: 12 ± 1 mmHg
- LV end-diastolic volume (EDV) [4]: 62 ± 2 mL
- LV end-systolic volume (ESV) [4]: 43 ± 2 mL
- Mean aortic pressure (mAoP) [4]: 70 ± 3 mmHg
- Stroke volume (SV) [4]: 18 ± 1 mL
- Systemic vascular resistance (SVR) [4]: 3870 ± 366 dynes-sec-cm^−5
- Cardiac output (CO) [5]: 1.45 ± 0.06 L/min
- Heart rate (HR) [5]: 82 ± 6 beats/min
- LV end-diastolic pressure (LVEDP) [5]: 12 ± 1 mmHg
- LV end-diastolic volume (EDV) [5]: 58 ± 4 mL
- LV end-systolic volume (ESV) [5]: 39 ± 3 mL
- Mean aortic pressure (mAoP) [5]: 65 ± 2 mmHg
- Stroke volume (SV) [5]: 19 ± 1 mL
- Systemic vascular resistance (SVR) [5]: 3379 ± 26 dynes-sec-cm^−5
- Cardiac output (CO) [6]: 1.64 ± 0.06 L/min
- Heart rate (HR) [6]: 80 ± 3 beats/min
- LV end-diastolic pressure (LVEDP) [6]: 12 ± 2 mmHg
- LV end-diastolic volume (EDV) [6]: 57 ± 4 mL
- LV end-systolic volume (ESV) [6]: 36 ± 3 mL
- Mean aortic pressure (mAoP) [6]: 69 ± 3 mmHg
- Stroke volume (SV) [6]: 21 ± 2 mL
- Systemic vascular resistance (SVR) [6]: 3388 ± 235 dynes-sec-cm^−5
- De-novo ventricular arrhythmias (HF dogs, iv 3 to 300 μg/kg/min): without triggering de-novo ventricular arrhythmias
- Hypotension (HF dogs, iv 3 to 300 μg/kg/min): without inducing hypotension

Reference: patent US9492468B2, “Methods and compositions for treatment of acute heart failure” (PERICOR THERAPEUTICS, INC., priority 2008, dated 2016)
